Experimental findings from patent US8343912B2, “Antibiotic compositions for the treatment of gram negative infections” (priority 2008, dated 2013) are described below.

For orientation: EC50 means the concentration giving half of the maximal effect.

The nature of series [1]: Cell culture cytotoxicity assay (ATP bioluminescence, LLC-PK1). Type of series: cell-based, rat. To be noted: rat; read-out: EC50, rat kidney proximal tubule cell culture cytotoxicity assay. The protocol:
Day 1: 1×10^5 to 2×10^5 cellswere inoculated (Cell line: LLC-PK1) per flask, containing 4 mL/T25 flask of medium DMEM-F12 (50/50) media supplemented with 10% FBS (Fetal Bovine Serum). The cells were then incubated at 37° C., 5% CO2, 80% RH.
Day 4: The cell cultures were examined to determine 80% confluency. To trypsinize of the 80% confluent flasks, 4 mL of DMEM-F12-10% FBS media was prepared per flask. The media was aspirated from the flask and 5 mL of Versene was added to rinse the flask. The Versene was aspirated and 2 mL of triple Express solution (trypsin solution) was added. The cells were incubated for 5 min at room temperature and examined via microscopy for the rounding of the cells and their detachment. To speed up the reaction, the flask can be incubated at 37° C. for 3 minutes. 4 mL of media (DMEM-F12-10%FBS) was added to stop the reaction. Using a 5 mL pipette, the completed reaction was pipetted up and down to ensure that the cells were properly detached from the flask and from each others. The cell number was counted using a hemocytometer slide. 100 μL of cell suspension was transferred to a tube and 100 μL of Trypan Blue was added. Inoculum for 96 well is 10,000 cells per well. For one 96 well plate, 26.3 μL×110 well=2893 μL total. 2.9 mL of cell suspension was mixed with 8.1 mL of media DMEM-F12-10% FBS and 100 μL was distributed to each well using a multichannel pipetter. The plate was then Incubated for 24 h at 37° C.
Day 5: DMEM-F12 (no FBS) medium was dispensed into tubes with the test article to achieve final concentrations of […]. The 96 well plate was taken off the incubator and media was removed from each well using multichannel pipetter. 80 μL of serially diluted compounds of Formula (I) was added to each well. Every set of concentration was done in triplicate. Media and positive controls were added to each plate and the plates were incubated for 24 hours at 37° C.
Day 6: The plates were taken from the incubator, the media was removed from each well, and 100 μL of fresh media DMEM-F12 (this is equivalent to a rinse and the media can be replaced with PBS) was added. The media is then removed and 80 μL of cell lysis solution is added. After 5 minutes, 80 μL of sterile filtered high quality water was added to each well. Using a white or black 96 well reaction plate, 80 μL of 25× diluted ATP mix reagent (Sigma Bioluminescent Somatic Cell Assay Kit [cat #FL-ASC]) was added into one column. 80 μL of diluted ATP standards (dilutions used: 250, 500, 1000, 2000 and 4000) was added and the plate was read immediately in the topcount with a 2 second read time. In another white or black 96 well reaction plate, 80 μL of 25× diluted ATP mix reagent (plate A) was added and 80 μL of lysis-water solution was transferred to each column of plate A. The plate was then read immediately in the topcount with a 2 second read time. This process was repeated for next consecutive plate and the EC50 for certain compounds of Formula I were calculated and provided in Table 4.

Another series relates to P. aeruginosa #44. Briefly: Lung infection in neutropenic mice. To be noted: for Log10 CFU/mL lung homogenate ± SD: lungs at 24 h; for ED−3log10 (dose for 3 log10 reduction in bacterial count vs water): lung infection, sc, Compound 5 value corrected for lot potency 711 μg/mg. It is filed as in vivo. The protocol:
Infection was induced in normal immunocompetent or neutropenic mice by intranasal inoculation of P. aeruginosa #44. […] At 24 hours post-infection, mice were humanely euthanized and the lungs of the mice were removed, homogenized, serially diluted, and plated on agar, to quantitate the bacterial burden.
All of the test compounds were dissolved in sterile water for administration by subcutaneous (sc) injection. […] A series of dilutions of test compounds were prepared in water.
In the lung infection model using P. aeruginosa #44 as the infecting organism, CD-1 mice were made neutropenic by intraperitoneal (ip) administration with 150 mg/kg cyclophosphamide on day-4, followed by a second ip dose of 100 mg/kg cyclophosphamide on day-1. On day 0 a diluted, exponential-phase growing culture of P. aeruginosa #44 corresponding to 1×10^5 or 2.5×10^8 CFU respectively, in 0.1 mL of sterile saline, was inoculated by the intranasal route in mice. Just prior to inoculation, mice were anaesthetized with 60 mg/kg pentobarbital, ip. The actual concentration of bacteria in the inoculum was confirmed by determination of viable counts by dilution plating on tryptic soy agar plates. The number of CFU of bacteria was determined after an incubation of 16 h at 37° C.
Groups of five mice were used for each dose of the test compounds and the vehicle (water) control group. Each group received sc injections of test compounds or vehicle at 1 hour post-infection, and then at 6 hours post-infection for a total of 2 doses. In each study, there were three to five dose groups per test compound.
Eighteen hours after the last injection, the mice were euthanized by asphyxiation with CO2. The lungs were removed aseptically, homogenized in 4 mL of sterile, distilled water and dilution plated on tryptic soy agar plates to quantify bacterial CFU. The number of CFU of bacteria in lungs was determined after an incubation of 16 hours at 37° C. (the CFU per milliliter of homogenate).
The results were expressed as the geometric mean log10 CFU/mL±the standard deviation. The limit of detection was 10 CFU per mL of lung homogenate. Lungs were considered sterile when no CFU were detected on the agar. The efficacy of the test compounds was assessed by comparing the number of log10 CFU/mL measured in the infected and treated mice with control animals treated with water.
Dose response curves of test compounds were generated for each isolate. Regression lines were generated in Microsoft Excel and used to calculate the dose expected to produce a 3 log10 reduction in bacterial count as compared to water-treated group [ED−3 log 10 (mg/kg, sc, BID)].

Where [2] appears, read: 4.0 mg/kg BID sc, 1 and 6 h post-infection, water control 6.53.

Converted amounts (≈) assume the structure as drawn. Marks after values point to notes of the source that are not given here. Numbered stars: 1 amine (or outer) side, 2 acyl side, 3 side chain; on linkers, the order of the positions; unused ones are H or OH. Bridge positions count the residues as written; N and C are the ends. Square brackets hold non-standard residues; d marks the D form. Peptide text beside a SMILES is read from it. * marks the point of attachment. Octanoyl(6-Me) = CCC(C)CCCCC(=O)*; NH(2-ClPh) = Clc1ccccc1N*; Dab = NCC[CH](N)C(=O)O; CO = O=C([*:1])[*:2]

For the compound `CCC(C)CCCCC(=O)NC(CCN)C(=O)NC(C(=O)NC(CCN)C(=O)NC1CCNC(=O)C(C(C)O)NC(=O)C(CCN)NC(=O)C(CCN)NC(=O)C(CC(C)C)NC(=O)C(Cc2ccccc2)NC(=O)C(CCN)NC1=O)C(C)O` (centres unmarked) [Polymyxin B, polymyxin B, reference compound] ({Octanoyl(6-Me)}-[Dab]T[Dab][Dab][Dab]FL[Dab][Dab]T; lactam 4-C; configuration not given here), the EC50 at 24 h in series [1] was determined as 318 µg/mL (≈ 264 µM). The “Log10 CFU/mL lung homogenate ± SD” value with P. aeruginosa #44 (setting [2]) is 6.48 ± 1.59 Log10 CFU/mL; in the series on P. aeruginosa #44 (8.0 mg/kg BID sc), 5.73 ± 1.92 Log10 CFU/mL; in the series with P. aeruginosa #44 (12.0 mg/kg BID sc) it was 3.47 ± 1.16 Log10 CFU/mL; in the series with P. aeruginosa #44 (16.0 mg/kg BID sc), 2.88 ± 1.07 Log10 CFU/mL; in the series with P. aeruginosa #44 (20.0 mg/kg BID sc), 2.71 ± 1.09 Log10 CFU/mL. Also, the “ED−3log10 (dose for 3 log10 reduction in bacterial count vs water)” value in the series on P. aeruginosa #44 was 12.97 mg/kg, BID.

Turning to `CC(C)C[C@@H]1NC(=O)[C@@H](Cc2ccccc2)NC(=O)[C@H](CCN)NC(=O)[C@@H](NC(=O)[C@H](CCN)NC(=O)[C@@H](NC(=O)[C@H](CCN)NC(=O)Nc2ccccc2Cl)[C@@H](C)O)CCNC(=O)[C@H]([C@@H](C)O)NC(=O)[C@H](CCN)NC(=O)[C@H](CCN)NC1=O` [Compound 5, (S)-4-amino-N-((2S,3R)-1-((S)-4-amino-1-oxo-1-((3S,6S,9S,12S,15R,18S,21S)-6,9,18-tris(2-aminoethyl)-15-benzyl-3-((R)-1-hydroxyethyl)-12-isobutyl-2,5,8,11,14,17,20-heptaoxo-1,4,7,10,13,16,19-heptaazacyclotricosan-21-ylamino)butan-2-ylamino)-3-hydroxy-1-oxobutan-2-yl)-2-(3-(2-chlorophenyl)ureido)butanamide] ({NH(2-ClPh)-CO}-[Dab]T[Dab][Dab][Dab][dF]L[Dab][Dab]T; lactam 4-C), the EC50 at 24 h in series [1] is over 1000 µg/mL. Moreover, the “Log10 CFU/mL lung homogenate ± SD” value is 5.49 ± 1.27 Log10 CFU/mL in the series on P. aeruginosa #44 (setting [2]); 4.86 ± 1.18 Log10 CFU/mL in the series on P. aeruginosa #44 (8.0 mg/kg BID sc); 4.13 ± 1.46 Log10 CFU/mL in the series with P. aeruginosa #44 (12.0 mg/kg BID sc); 2.56 ± 0.34 Log10 CFU/mL in the series on P. aeruginosa #44 (16.0 mg/kg BID sc); 2.51 ± 0.70 Log10 CFU/mL with P. aeruginosa #44 (20.0 mg/kg BID sc). Also, in the series on P. aeruginosa #44, the “ED−3log10 (dose for 3 log10 reduction in bacterial count vs water)” value is recorded as 9.05^b mg/kg, BID.
